Experiments:
[1] = tested on: velvetleaf; experiment: Test B pre/postemergence velvetleaf; type: in vivo, Abutilon theophrasti
Outline: (§1)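 Response is a visual 0-to-10 score relative to untreated plants, where 0 means no effect and 10 means complete control, taken twelve to sixteen days after application. Treatments went onto soil at planting and onto foliage of 1- to 4-leaf plants, using a surfactant-containing non-phytotoxic solvent.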

[2] = tested on: blackgrass; experiment: Test B pre/postemergence blackgrass; type: in vivo, Alopecurus myosuroides
Outline: as §1

[3] = tested on: smallflower flatsedge; experiment: Test B flood test smallflower flatsedge; type: in vivo, Cyperus difformis
Outline: (§2)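 Read-out is a visual response score from 0 (no effect) to 10 (complete control), assigned by comparison with untreated controls. Treatment was applied at the 2-leaf stage, and plants stayed in the greenhouse for twelve to sixteen days before scoring.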

[4] = tested on: wheat; experiment: Test B pre/postemergence wheat; type: in vivo, Triticum aestivum
Outline: as §1

[5] = tested on: rice; experiment: Test B flood test rice; type: in vivo, Oryza sativa
Outline: as §2

[6] = tested on: crabgrass; experiment: Test B pre/postemergence crabgrass; type: in vivo, Digitaria sanguinalis
Outline: as §1

[7] = tested on: rape; experiment: Test B pre/postemergence rape; type: in vivo, Brassica napus
Outline: as §1

[8] = tested on: wild oat; experiment: Test B pre/postemergence wild oat; type: in vivo, Avena fatua
Outline: as §1

[9] = tested on: cocklebur; experiment: Test B pre/postemergence cocklebur; type: in vivo, Xanthium strumarium
Outline: as §1

[10] = tested on: surinam grass; experiment: Test B pre/postemergence surinam grass; type: in vivo, Brachiaria decumbens
Outline: as §1

[11] = tested on: pigweed; experiment: Test B pre/postemergence pigweed; type: in vivo, Amaranthus retroflexus
Outline: as §1

[12] = tested on: corn; experiment: Test B pre/postemergence corn; type: in vivo, Zea mays
Outline: as §1

[13] = tested on: giant foxtail; experiment: Test B pre/postemergence giant foxtail; type: in vivo, Setaria faberii
Outline: as §1

[14] = tested on: sugar beet; experiment: Test B pre/postemergence sugar beet; type: in vivo, Beta vulgaris
Outline: as §1

[15] = tested on: duck salad; experiment: Test B flood test duck salad; type: in vivo, Heteranthera limosa
Outline: as §2

[16] = tested on: soybean; experiment: Test B pre/postemergence soybean; type: in vivo, Glycine max
Outline: as §1

[17] = Postemergence, Rate 125 g/ha, scale of 0 to 10 where 0 is no effect and 10 is complete control
[18] = Postemergence, Rate 250 g/ha, scale of 0 to 10, 0 is no effect, 10 is complete control
[19] = Postemergence, Rate 1000 g/ha, scale 0 to 10 (0 no effect, 10 complete control)
[20] = Preemergence, Rate 125 g/ha, scale of 0 to 10 where 0 is no effect and 10 is complete control
[21] = Preemergence, Rate 250 g/ha, scale 0 to 10 (0 no effect, 10 complete control)
[22] = Preemergence, Rate 500 g/ha, scale of 0 to 10 where 0 is no effect and 10 is complete control
[23] = Rate 1000 g/ha, Preemergence, scale 0 to 10 (0 no effect, 10 complete control)
[24] = Postemergence, Rate 500 g/ha, scale of 0 to 10 where 0 is no effect and 10 is complete control
[25] = Pre-emergence, Rate 1000 g/ha, scale 0 to 10 (0 no effect, 10 complete control)
[26] = Rate 125 g/ha, under heading Pre-emergence, flood test species, visual evaluation after twelve to sixteen days
[27] = Rate 250 g/ha, Pre-emergence (flood test species), scale 0 to 10, 0 is no effect, 10 is complete control
[28] = Rate 500 g/ha, Pre-emergence section of Table B, 0 to 10 scale (0 no effect, 10 complete control)

## CCOP(=O)(OCC)C(C)n1c(=O)on(C(=O)N(c2ccc(F)cc2)C(C)C)c1=O (stereo not shown) [Compound 617]
[1]; [17]
  Plant response rating, Velvetleaf: 0
[1]; [18]
  Velvetleaf plant response rating: 0
[1]; [19]
  Velvetleaf plant response rating: 2
[1]; [20]
  Velvetleaf plant response rating: 0
[1]; [21]
  Plant response rating, Velvetleaf: 0
[1]; [22]
  Plant response rating, Velvetleaf: 0
[1]; [23]
  Plant response rating, Velvetleaf: 0
[2]; [17]
  Plant response rating, Blackgrass: 0
[2]; [18]
  Blackgrass plant response rating: 0
[2]; [24]
  Plant response rating, Blackgrass: 0
[2]; [19]
  Blackgrass plant response rating: 6
[2]; [20]
  Blackgrass plant response rating: 0
[2]; [21]
  Plant response rating, Blackgrass: 6
[2]; [22]
  Blackgrass plant response rating: 6
[2]; [23]
  Plant response rating, Blackgrass: 10
[3]; [25]
  S. Flatsedge plant response rating: 0
[3]; [26]
  S. Flatsedge plant response rating (0 to 10 scale, 0 is no effect, 10 is complete control): 0
[3]; [27]
  S. Flatsedge plant response rating: 0
[3]; [28]
  S. Flatsedge plant response rating: 0
[4]; [17]
  Plant response rating, Wheat: 0
[4]; [18]
  Wheat plant response rating: 0
[4]; [19]
  Wheat plant response rating: 0
[4]; [20]
  Wheat plant response rating: 0
[4]; [21]
  Plant response rating, Wheat: 0
[4]; [22]
  Plant response rating, Wheat: 0
[4]; [23]
  Plant response rating, Wheat: 2
[5]; [25]
  Rice plant response rating: 0
[5]; [26]
  Rice plant response rating (0 to 10 scale, 0 is no effect, 10 is complete control): 0
[5]; [27]
  Rice plant response rating: 0
[5]; [28]
  Rice plant response rating: 0
[6]; [17]
  Plant response rating, Crabgrass: 0
[6]; [18]
  Crabgrass plant response rating: 2
[6]; [24]
  Plant response rating, Crabgrass: 0
[6]; [19]
  Crabgrass plant response rating: 7
[6]; [21]
  Plant response rating, Crabgrass: 5
[6]; [22]
  Plant response rating, Crabgrass: 8
[6]; [23]
  Plant response rating, Crabgrass: 8
[7]; [17]
  Plant response rating, Rape: 0
[7]; [18]
  Rape plant response rating: 0
[7]; [24]
  Plant response rating, Rape: 0
[7]; [19]
  Rape plant response rating: 0
[7]; [20]
  Rape plant response rating: 0
[7]; [21]
  Plant response rating, Rape: 0
[7]; [22]
  Plant response rating, Rape: 0
[7]; [23]
  Plant response rating, Rape: 0
[8]; [17]
  Plant response rating, Wild oats: 0
[8]; [18]
  Wild oats plant response rating: 0
[8]; [19]
  Wild oats plant response rating: 0
[8]; [20]
  Wild oats plant response rating: 0
[8]; [21]
  Plant response rating, Wild oats: 2
[8]; [22]
  Plant response rating, Wild oats: 3
[8]; [23]
  Plant response rating, Wild oats: 9
[9]; [17]
  Plant response rating, Cocklebur: 0
[9]; [18]
  Cocklebur plant response rating: 0
[9]; [24]
  Plant response rating, Cocklebur: 2
[9]; [19]
  Cocklebur plant response rating: 3
[9]; [20]
  Cocklebur plant response rating: 0
[9]; [21]
  Plant response rating, Cocklebur: 0
[9]; [22]
  Plant response rating, Cocklebur: 0
[9]; [23]
  Plant response rating, Cocklebur: 0
[10]; [17]
  Plant response rating, B. signalgrass: 0
[10]; [18]
  B. signalgrass plant response rating: 0
[10]; [24]
  Plant response rating, B. signalgrass: 0
[10]; [19]
  B. signalgrass plant response rating: 3
[10]; [20]
  B. signalgrass plant response rating: 0
[10]; [21]
  Plant response rating, B. signalgrass: 4
[10]; [22]
  B. signalgrass plant response rating: 5
[10]; [23]
  Plant response rating, B. signalgrass: 8
[11]; [17]
  Plant response rating, Redroot pigweed: 0
[11]; [18]
  Redroot pigweed plant response rating: 0
[11]; [19]
  Redroot pigweed plant response rating: 0
[11]; [20]
  Redroot pigweed plant response rating: 0
[11]; [21]
  Plant response rating, Redroot pigweed: 0
[11]; [22]
  Plant response rating, Redroot pigweed: 0
[11]; [23]
  Plant response rating, Redroot pigweed: 0
[12]; [17]
  Plant response rating, Corn: 0
[12]; [18]
  Corn plant response rating: 0
[12]; [24]
  Plant response rating, Corn: 0
[12]; [19]
  Corn plant response rating: 0
[12]; [20]
  Corn plant response rating: 0
[12]; [21]
  Plant response rating, Corn: 0
[12]; [22]
  Plant response rating, Corn: 0
[12]; [23]
  Plant response rating, Corn: 0
[13]; [17]
  Plant response rating, Giant foxtail: 0
[13]; [18]
  Giant foxtail plant response rating: 4
[13]; [24]
  Plant response rating, Giant foxtail: 0
[13]; [19]
  Giant foxtail plant response rating: 6
[13]; [20]
  Giant foxtail plant response rating: 9
[13]; [21]
  Plant response rating, Giant foxtail: 9
[13]; [22]
  Plant response rating, Giant foxtail: 9
[13]; [23]
  Plant response rating, Giant foxtail: 10
[14]; [17]
  Plant response rating, Sugarbeets: 0
[14]; [18]
  Sugarbeets plant response rating: 0
[14]; [19]
  Sugarbeets plant response rating: 0
[14]; [20]
  Sugarbeets plant response rating: 0
[14]; [21]
  Plant response rating, Sugarbeets: 0
[14]; [22]
  Plant response rating, Sugarbeets: 0
[14]; [23]
  Plant response rating, Sugarbeets: 0
[15]; [25]
  Ducksalad plant response rating: 0
[15]; [26]
  Ducksalad plant response rating (0 to 10 scale, 0 is no effect, 10 is complete control): 0
[15]; [27]
  Ducksalad plant response rating: 0
[15]; [28]
  Ducksalad plant response rating: 0
[16]; [17]
  Plant response rating, Soybean: 1
[16]; [18]
  Soybean plant response rating: 3
[16]; [19]
  Soybean plant response rating: 7
[16]; [20]
  Soybean plant response rating: 0
[16]; [21]
  Plant response rating, Soybean: 0
[16]; [22]
  Plant response rating, Soybean: 0
[16]; [23]
  Plant response rating, Soybean: 1
